# Several values for one entry are separate records, joined by “and”; a condition that tells them apart may be missing. Identical values can stand only once. Like-named read-outs stand apart in the source and are kept apart here.
# What was measured:
# [1] = tested on: peridural space / spinal roots of dogs (digital pain, scrotal pain, weight support); type: in vivo, Mature male beagles
# [2] = tested on: sheep (anal, vulv.-scrotal and digital pain); type: in vivo; settings: Compound C alone 1%
# [3] = tested on: rat sciatic nerve; type: in vivo, Female Charles River rats
# [4] = tested on: inward initial sodium current; settings: voltage-clamped giant axon; cited from earlier work
# [5] = tested on: outward potassium current; settings: voltage-clamped giant axon; cited from earlier work
# [6] = alone: S 0.75%, T 1%, bupivicaine 0.5%, epinephrine 1:100,000, 5 ml
# [7] = compound alone 1.0%, no vasoconstrictor
# [8] = compound alone 0.5%, no vasoconstrictor
# [9] = local anesthetic alone: lidocaine 2.0%, dibucaine 0.125%, procaine 2.0%, no epinephrine
# [10] = local anesthetic alone: lidocaine 2.0%, dibucaine 0.125%, procaine 2.0%, no epinephrine, approximate
# [11] = local anesthetic alone 0.25%, no vasoconstrictor
# [12] = 5 ml, epinephrine 1:100,000, lidocaine 2%
# [13] = 5 ml, epinephrine 1:100,000, lidocaine 2%, saxitoxin 4 μg/ml
# [14] = 1:100,000 epinephrine, procaine 1%, saxitoxin 1 μg/ml
smiles,measurement,setting,value
"CCCCN1CCCCC1C(=O)Nc1c(C)cccc1C (stereo not shown) [Bupivicaine, bupivacaine]",Duration of block of Digital Pain,[1]; [6],232 to 269 min
same,Duration of block of Scrotal Pain,[1]; [6],94 min and 139 min
same,Duration of block of Scrotal Pain,"[1]; alone: S 0.75%, T 1%, bupivicaine 0.5%, epinephrine 1:100,000, 5 ml, listed as bupivicaine",about 94 min.
"CCCN(CC(=O)Nc1c(C)cccc1C)C(C)(C)CC [Compound C, 2-(N-n-Propyl-tert. amylamino)-2',6'-acetoxylidide]",Duration of block of Scrotal Pain,"[1]; C alone 1%, 10 ml, epinephrine 1:100,000, 2 animals",192 min and 251 min
same,Duration of block of Digital Pain,[2],45 to 60 min
same,Onset time,[2],5 to 10 min
"Cc1cccc(C)c1NC(=O)CNC1CCC1 [Compound K, 2-Cyclobutylamino-2',6'-acetoxylidide]",Frequency,[3]; [7],6/6
"CCC(C)N(CC)CC(=O)Nc1c(C)cccc1C (stereo not shown) [Compound P, 2-(N-Ethyl-sec. butylamino)-2',6'-acetoxylidide]",Frequency (in words),"[3]; Example 5, STX 2 μg/ml in combinations",poor
same,"Duration, mean ± S.D.",[3]; [8],45 min
same,Frequency,[3]; [8],2/6
"CCCCOc1cc(C(=O)NCCN(CC)CC)c2ccccc2n1 [Dibucaine, dibucaine]","Duration of complete block, mean ± standard deviation",[3]; [9],170 ± 33 min
same,Frequency of complete block (C),[3]; [9],5/5
same,Onset,[3]; [10],4 min
"CCCOc1ccc(C(=O)CCN2CCCCC2)cc1 [Falicain, falicain]","Duration, mean ± S.D.",[3]; [11],94 ± 21 min
same,Frequency,[3]; [11],5/5
same,"Duration, mean ± S.D.","[3]; local anesthetic alone 0.25%, no vasoconstrictor, listed as falicain",about 94 min.
"Cc1cccc(C)c1NC(=O)CN(C)C [H, 2-Dimethylamino-2'-6'-acetoxylidide]",Frequency,[3]; [8],5/6
same,"Duration, mean ± S.D.",[3]; [7],76 ± 12 min
same,Frequency,[3]; [7],6/6
"CCNCC(=O)Nc1c(C)cccc1C [J, 2-Ethylamino-2',6'-acetoxylidide]",Frequency,[3]; [7],6/6
"CCC(C)(C)NCC(=O)Nc1c(C)cccc1C [L, 2-tert. Amylamino-2',6'-acetoxylidide]",Frequency,[3]; [8],6/6
same,"Duration, mean ± S.D.",[3]; [7],101 ± 8 min
same,Frequency,[3]; [7],6/6
"CCN(CC)CC(=O)Nc1c(C)cccc1C [Lidocaine, lidocaine]","Duration of complete block, mean ± standard deviation",[3]; [9],141 ± 28 min
same,Frequency of complete block (C),[3]; [9],5/5
same,Onset,[3]; [10],1 min
same,"Duration: mean, Weight Support",[1]; [12],137 min
same,"Duration: range, Weight Support",[1]; [12],108 to 162 min
same,"Duration: mean, Digital Pain",[1]; [13],127 min
same,"Duration: mean, Scrotal Pain",[1]; [13],111 min
same,"Duration: range, Digital Pain",[1]; [13],72 to 162 min
same,"Duration: range, Scrotal Pain",[1]; [13],62 to 152 min
same,"Onset: mean, Digital Pain",[1]; [13],7 min
same,"Onset: mean, Scrotal Pain",[1]; [13],8 min
same,"Onset: mean, Weight Support",[1]; [13],5 min
same,"Onset: range, Digital Pain",[1]; [13],5 to 13 min
same,"Onset: range, Scrotal Pain",[1]; [13],5 to 13 min
same,"Onset: range, Weight Support",[1]; [13],3 to 6 min
same,"Duration (salient points, in words)",[1]; Table III footnote,short
same,"Frequency (salient points, in words)",[1]; Table III footnote,good
"CCCCN(C)CC(=O)Nc1c(C)cccc1C [M, 2-(N-Methyl-n-butylamino)-2',6'-acetoxylidide]",Frequency,[3]; [7],5/6
"CCCCOc1ccc(OCCCN2CCOCC2)cc1 [Pramoxine, pramoxine]",Anesthetic effect (in words),"[3]; Example 5, STX 2 μg/ml or pramoxine 0.25% alone",no anesthetic effect whatever was observed
same,"Duration, mean ± S.D.",[3]; [11],0 min
same,Frequency,[3]; [11],0/5
"CCN(CC)CCOC(=O)c1ccc(N)cc1 [Procaine, procaine]",Effect on inward (initial) sodium current (in words),[4],reduce
same,"Duration, mean ± standard deviation",[3]; [14],104 ± 15 min
same,Frequency,[3]; [14],100%
same,Onset,[3]; [14],2 min
same,"Duration of complete block, mean ± standard deviation",[3]; [9],99 ± 8 min
same,Frequency of complete block (C),[3]; [9],5/5
same,Onset,[3]; [10],1 min
same,Effect on outward potassium current (in words),[5],reduce
"Cc1cccc(C)c1NC(=O)C(C)N (stereo not shown) [Q, 2-Amino-2',6'-propionoxylidide]",Frequency,[3]; [8],4/6
same,"Duration, mean ± S.D.",[3]; [7],79 ± 19 min
same,Frequency,[3]; [7],5/6
"CCCN(CC)C(CC)C(=O)Nc1c(C)cccc1C (stereo not shown) [S, 2-(N-Ethyl-n-propylamino)-2',6'-butyroxylidide]",Duration of block of Digital Pain,[1]; [6],151 (77-256) min.
same,Duration of block of Scrotal Pain,[1]; [6],128 (82-173) min.
"CCCC(C(=O)Nc1c(C)cccc1C)N(CC)CC (stereo not shown) [T, 2-Diethylamino-2',6'-valeroxylidide]",Duration of block of Digital Pain,[1]; [6],301 (238-365) min.
same,Duration of block of Scrotal Pain,[1]; [6],202 (185-218) min.
COC(=O)[C@H]1[C@@H](OC(=O)c2ccccc2)C[C@@H]2CC[C@H]1N2C [cocaine],Effect on inward (initial) sodium current (in words),[4],reduce
same,Effect on outward potassium current (in words),[5],reduce

# From patent publication US3957996A (priority 1973, dated 1976)
